{
  "source": "patent US11285132B2",
  "about": "“Uses of indolinone compounds” (Oncternal Therapeutics, Inc., priority 2016, dated 2022)",
  "key": {"A4573 cells": {"system": "A4573 cells", "test": "Proliferation of Ewing sarcoma A4573 cell line", "type": "cell-based", "conditions": "A4573 cells (EWS-FLI1 expressing Ewing sarcoma cell line); read-out: EC50, inhibition of proliferation", "text": "TK216 is a first in class, small molecule that directly binds EWS-FLI1 inhibiting the biological activity of ETS-family transcription factor oncoproteins and is currently under clinical investigation in patients with Ewing sarcoma."}, "HL-60": {"system": "HL-60", "test": "72 hr CellTiter-Glo, AML cell line", "type": "cell-based", "conditions": "Homo sapiens"}, "MOLM-13": {"system": "MOLM-13", "test": "72 hr CellTiter-Glo, AML cell line", "type": "cell-based", "conditions": "Homo sapiens"}, "THP-1": {"system": "THP-1", "test": "72 hr CellTiter-Glo, AML cell line", "type": "cell-based", "conditions": "Homo sapiens"}, "HBL-1": {"system": "HBL-1", "test": "72 hr CellTiter-Glo, DLBCL cell line", "type": "cell-based", "conditions": "HBL1"}, "DOHH2": {"system": "DOHH2", "test": "72 hr CellTiter-Glo, DLBCL cell line", "type": "cell-based", "conditions": "Homo sapiens, DOHH-2"}, "WSU-DLCL2": {"system": "WSU-DLCL2", "test": "72 hr CellTiter-Glo, DLBCL cell line", "type": "cell-based", "conditions": "Homo sapiens, WSUDLCL2"}, "OCI-Ly19": {"system": "OCI-Ly19", "test": "72 hr CellTiter-Glo, DLBCL cell line", "type": "cell-based", "conditions": "Homo sapiens"}, "DLBCL cell lines": {"system": "DLBCL cell lines", "test": "Median-effect combination analysis (CalcuSyn, Chou/Talalay CI)", "type": "cell-based", "text": "The median-effect analysis was used to determine synergism, antagonism, or additivity of TK216 when combined with ABT199 (BCL-2i) and ACP196 (BTKi).\nThe inhibition of the EWS-FLI1 oncogene offers a promising approach for the treatment of Ewing Sarcoma, e.g., relapsed/refractory Ewing Sarcoma."}, "TMD-8 tumors": {"system": "TMD-8 tumors", "test": "TMD-8 DLBCL-ABC xenograft model in nude mice", "type": "in vivo", "experimental": "The anti-tumor activity of TK216 was assessed in nude mice harboring TMD-8 tumors, a DLBCL-ABC xenograft model. TK216 was administered orally as a solution at 100 mg/kg BID for 13 days."}, "[1]": {"system": "DLBLC cell lines (TMD8, HBL1, U2932)", "test": "Dose-effect testing in combination with venetoclax", "type": "cell-based", "text": "In each of FIGS. 13-15, the top curve (×) was for the combination therapy, the middle curve (⊚) was for TK216, and the bottom curve (+) was for venetoclax. FIG. 13 is a dose-effect curve for TK216 in combination with venetoclax in the TMD8 cell line. FIG. 14 is a dose-effect curve for TK216 in combination with venetoclax in the U2932 cell line. FIG. 15 is a dose-effect curve for TK216 in combination with venetoclax in the HLB1 cell line."}, "56 lymphoma cell lines": {"system": "56 lymphoma cell lines", "test": "MTT proliferation, 56 lymphoma cell lines, 72 h", "type": "cell-based", "conditions": "95% C.I.: 367-506, read-out: median IC50", "experimental": "56 lymphoma cell lines [27 diffuse large B cell lymphoma (DLBCL); 10 mantle cell lymphoma; 6 marginal zone lymphoma; 5 anaplastic large T-cell lymphoma; 8 others] were exposed to TK-216 increasing doses for 72 h using a Tecan D300e Digital Dispenser and 384 well plates. Cell proliferation was measured with MTT. In vivo study was done in NOD-SCID mice; treatments were started with approximately sc 60 mm3 tumor volumes. Sensitivity was not affected by the lymphoma cell of origin (B vs T; activated B cell type DLBCL versus germinal center type DLBCL) or MYC and TP53 status. There was a non-statistically significant trend for lower sensitivity in cell lines bearing BCL2 chromosomal translocation (P=0.07, DLBCL only; P=0.06, all cell lines)."}, "OCI-LY-10": {"system": "OCI-LY-10", "test": "Combination with other agents, MTT, Chou-Talalay combination index", "type": "cell-based", "text": "Y-axis: CI values. In each box-plot, the line in the middle of the box represents the median and the box extends from the 25th to the 75th percentile (interquartile range, IQ); the whiskers extend to the upper and lower adjacent values (i.e., ±1.5 IQ); outside values have been omitted from the figure. CIs for TK-216/rituximab in TMD8, TK-216/rituximab in Karpas422, TK-216/rituximab in OCI-LY-10 are not plotted due to CI values >3. Combinations tested included bendamustine, bortezomib, ibrutinib, idelalisib, lenalidomide, OTX015 (birabresib, CAS No. 202590-98-5), PQR309 (bimiralisib, CAS No. 1225037-39-7 (free base)), selinexor, venetoclax, and vincristine.\nCell lines were exposed to YK-4-279 or TK-216, alone or in combination with other compounds, for 72 h using a Tecan D300e Digital Dispenser and 96 well plates. Cell proliferation was measured with MTT. Synergy was determined with the Chou-Talalay combination index. Gene expression profiling (GEP) was performed with the Illumina HumanHT 12 Expression BeadChips. In vivo studies were done in NOD-SCID mice and treatments started with 60 mm3 tumor volumes sc."}, "SPIB to DDX5": {"target": "T1, SPIB to DDX5 (Homo sapiens, UniProt Q01892)", "T1 construct": "endogenous in cells", "T1 sequence (Q01892 whole entry)": "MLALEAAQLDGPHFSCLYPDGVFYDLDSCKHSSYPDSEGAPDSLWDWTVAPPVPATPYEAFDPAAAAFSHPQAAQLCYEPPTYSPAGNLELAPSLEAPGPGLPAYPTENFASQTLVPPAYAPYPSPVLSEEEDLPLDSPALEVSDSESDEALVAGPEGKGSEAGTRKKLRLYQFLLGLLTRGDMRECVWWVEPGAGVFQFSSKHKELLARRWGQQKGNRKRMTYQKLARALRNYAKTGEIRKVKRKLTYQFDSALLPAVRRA", "test": "Co-IP of SPIB with helicases in ABC DLBCL cell lines", "type": "cell-based", "conditions": "500 nM, 4-10 h", "text": "(§1) With the aim to understand the mechanism of action of YK-4-279 and TK-216, the baseline RNA expression levels of the different ETS factors were correlated with sensitivity to the drugs. SPIB was the gene presenting the most significant negative correlation with both YK-4-279 and TK-216, especially among the ABC DLBCL cell lines (P<0.05). SPIB is a known oncogene for ABC DLBCL (Lenz et al, PNAS 2008) and is involved in the response to lenalidomide in ABC DLBCL (Yang et al, Cancer Cell 2012). YK-4-279 inhibits the binding of EWS1-FLI1 to the helicases RHA and DDX5 (Selvanathan et al, PNAS 2012). Thus, it was assessed whether YK-4-279 and TK-216 can have a similar effect on SPIB and whether they induce cellular effects similar to lenalidomide. […] In ABC DLBCL, the ETS inhibitor YK-4-279 and its clinical derivative TK-216 interfere with SPIB and helicases involved in RNA editing. Moreover, both compounds act similarly to lenalidomide inhibiting IRF4 and upregulating IRF7 and synergize with the IMID in both ABC DLBCL and MCL."}, "SPIB to RHA": {"target": "T2, SPIB to RHA (Homo sapiens, UniProt Q01892)", "T2 construct": "endogenous in cells", "T2 sequence (Q01892 whole entry)": "as above", "test": "Co-IP of SPIB with helicases in ABC DLBCL cell lines", "type": "cell-based", "conditions": "500 nM, 4-10 h", "text": "as §1"}, "IRF4": {"system": "IRF4", "test": "Protein levels in cells", "type": "cell-based", "conditions": "similarly to lenalidomide", "text": "as §1"}, "IRF7": {"system": "IRF7", "test": "Protein levels in cells", "type": "cell-based", "conditions": "similarly to lenalidomide", "text": "as §1"}},
  "note": "pEC50, pIC50: −log10 of the molar value.",
  "data": [
    {"smiles": "O=C(CC1(O)C(=O)Nc2c(Cl)ccc(Cl)c21)c1ccc(C2CC2)cc1", "note": "(centres unmarked) [TK216, 4,7-Dichloro-3-(2-(4-cyclopropylphenyl)-2-oxoethyl)-3-hydroxyindolin-2-one]", "values": [
      {"measurement": "pEC50", "setting": "A4573 cells", "result": "> 6.70"},
      {"measurement": "pIC50", "setting": "HL-60", "result": 6.44},
      {"measurement": "pIC50", "setting": "MOLM-13", "result": 6.64},
      {"measurement": "pIC50", "setting": "THP-1", "result": 6.82},
      {"measurement": "pIC50", "setting": "HBL-1", "result": 6.52},
      {"measurement": "pIC50", "setting": "DOHH2", "result": 6.80},
      {"measurement": "pIC50", "setting": "WSU-DLCL2", "result": 6.05},
      {"measurement": "pIC50", "setting": "OCI-Ly19", "result": 6.97},
      {"measurement": "combination effect with ABT199 (BCL-2i), Combination Index", "setting": "DLBCL cell lines; combined with ABT199", "result": "synergy"},
      {"measurement": "combination effect with ACP196 (BTKi), Combination Index", "setting": "DLBCL cell lines; combined with ACP196", "result": "synergy"},
      {"measurement": "tumor growth inhibition", "setting": "TMD-8 tumors; 100 mg/kg BID orally, 13 days, vs vehicle control", "result": 77, "unit": "%"},
      {"measurement": "tolerability", "setting": "TMD-8 tumors; daily oral administration, xenograft models of DLBCL", "result": "well-tolerated"},
      {"measurement": "combination effect with venetoclax, dose-effect", "setting": "[1]", "result": "synergistic effect across doses"},
      {"measurement": "pIC50", "setting": "56 lymphoma cell lines", "result": 6.35},
      {"measurement": "effect of TK216 in combination with OTX015", "setting": "OCI-LY-10; with OTX015", "result": "additive effect"},
      {"measurement": "effect of TK216 in combination with PQR309", "setting": "OCI-LY-10; with PQR309", "result": "No benefit effects"},
      {"measurement": "effect of TK216 in combination with bendamustine", "setting": "OCI-LY-10; with bendamustine", "result": "No benefit effects"},
      {"measurement": "effect of TK216 in combination with bortezomib", "setting": "OCI-LY-10; with bortezomib", "result": "No benefit effects"},
      {"measurement": "effect of TK216 in combination with ibrutinib", "setting": "OCI-LY-10; with ibrutinib", "result": "additive effect"},
      {"measurement": "effect of TK216 in combination with idelalisib", "setting": "OCI-LY-10; with idelalisib", "result": "Synergism"},
      {"measurement": "effect of TK216 in combination with lenalidomide", "setting": "OCI-LY-10; with lenalidomide", "result": "Synergism"},
      {"measurement": "CI values, TK-216/rituximab", "setting": "OCI-LY-10; with rituximab, not plotted", "result": "> 3"},
      {"measurement": "effect of TK216 in combination with selinexor", "setting": "OCI-LY-10; with selinexor", "result": "No benefit effects"},
      {"measurement": "effect of TK216 in combination with venetoclax", "setting": "OCI-LY-10; with venetoclax", "result": "Synergism"},
      {"measurement": "effect of TK216 in combination with vincristine", "setting": "OCI-LY-10; with vincristine", "result": "additive effect"},
      {"measurement": "binding of SPIB to DDX5", "setting": "SPIB to DDX5", "result": "to a lesser extent, to DDX5 was decreased"},
      {"measurement": "binding of SPIB to RHA", "setting": "SPIB to RHA", "result": "decreased"},
      {"measurement": "IRF4 protein in cells", "setting": "IRF4", "result": "decreased IRF4"},
      {"measurement": "IRF7 protein in cells", "setting": "IRF7", "result": "upregulated IRF7"}
    ]}
  ]
}
